Measurements taken from ChEMBL document CHEMBL5390314, “Repurposing Azoles to Resolve Serotogenic Toxicity Associated with Linezolid to Combat Multidrug-Resistant Tuberculosis” (ACS Med Chem Lett, 2023).
Values after ≈ are worked out from the molar mass of the structure shown.

Experiments:
Format in all cases: functional
Conditions in all cases: time 7 day
[1] = system: Mycobacterium tuberculosis; experiment: Anti-mycobacterial activity against isoniazid, rifampicin, ethambutol and pyrazinamide-resistant Mycobacterium tuberculosis clinical isolate harbouring inhA/katG/rpoB H526D mutant assessed as bacterial growth inhibition incubated for 7 days by microplate alamar blue assay
[2] = system: Mycobacterium tuberculosis; experiment: Anti-mycobacterial activity against Isoniazid resistant Mycobacterium tuberculosis clinical isolate harbouring inhA mutant assessed as bacterial growth inhibition incubated for 7 days by microplate alamar blue assay
[3] = system: Mycobacterium tuberculosis; experiment: Anti-mycobacterial activity against Isoniazid resistant Mycobacterium tuberculosis clinical isolate harbouring katG S315T mutant assessed as bacterial growth inhibition incubated for 7 days by microplate alamar blue assay
[4] = system: Mycobacterium tuberculosis; experiment: Anti-mycobacterial activity against Rifampicin resistant Mycobacterium tuberculosis clinical isolate harbouring rpoB S531L mutant assessed as bacterial growth inhibition incubated for 7 days by microplate alamar blue assay

SMILES	MIC50 [1] [µM]	MIC90 [1] [µM]	MIC50 [2] [µM]	MIC90 [2] [µM]	MIC50 [3] [µM]	MIC90 [3] [µM]	MIC50 [4] [µM]	MIC90 [4] [µM]
CO[C@H]1/C=C/O[C@@]2(C)Oc3c(C)c(O)c4c(O)c(c(/C=N/N5CCN(C)CC5)c(O)c4c3C2=O)NC(=O)/C(C)=C\C=C\[C@H](C)[C@H](O)[C@@H](C)[C@@H](O)[C@@H](C)[C@H](OC(C)=O)[C@@H]1C [RIFAMPIN]	>100	>100	<0.04	<0.04	<0.04	<0.04	28.15 (≈ 23.2 µg/mL)	50 (≈ 41.1 µg/mL)
CC(=O)NC[C@H]1CN(c2ccc(N3CCOCC3)c(F)c2)C(=O)O1 [LINEZOLID]	0.81 (≈ 0.273 µg/mL)	1.56 (≈ 0.526 µg/mL)	0.12 (≈ 0.0405 µg/mL)	0.39 (≈ 0.132 µg/mL)	0.42 (≈ 0.142 µg/mL)	1.56 (≈ 0.526 µg/mL)	0.24 (≈ 0.081 µg/mL)	0.78 (≈ 0.263 µg/mL)
Clc1ccc(COC(Cn2ccnc2)c2ccc(Cl)cc2Cl)c(Cl)c1 (stereo not given) [MICONAZOLE]	4.42 (≈ 1.84 µg/mL)	6.25 (≈ 2.6 µg/mL)	0.28 (≈ 0.117 µg/mL)	0.78 (≈ 0.325 µg/mL)	3.58 (≈ 1.49 µg/mL)	6.25 (≈ 2.6 µg/mL)	2.74 (≈ 1.14 µg/mL)	6.25 (≈ 2.6 µg/mL)
NNC(=O)c1ccncc1 [ISONIAZID]	>100	>100	0.98 (≈ 0.134 µg/mL)	1.56 (≈ 0.214 µg/mL)	11.06 (≈ 1.52 µg/mL)	12.5 (≈ 1.71 µg/mL)	23.03 (≈ 3.16 µg/mL)	25 (≈ 3.43 µg/mL)
Clc1ccccc1C(c1ccccc1)(c1ccccc1)n1ccnc1 [CLOTRIMAZOLE]	5.07 (≈ 1.75 µg/mL)	6.25 (≈ 2.16 µg/mL)	0.17 (≈ 0.0586 µg/mL)	0.78 (≈ 0.269 µg/mL)	1.72 (≈ 0.593 µg/mL)	3.12 (≈ 1.08 µg/mL)	1.53 (≈ 0.528 µg/mL)	3.12 (≈ 1.08 µg/mL)
